Assay results from ChEMBL document CHEMBL1909046, “DrugMatrix in vitro pharmacology data”.

Legend:
[1] = biological target: T1, Muscarinic acetylcholine receptor M5 (Homo sapiens, UniProt P08912); assay type: cell membranes, CHO-K1, Membrane; conditions: cho-k1; further: in other assays of this panel Not Active means under 50% inhibition at 10 µM
T1 sequence (P08912 whole entry): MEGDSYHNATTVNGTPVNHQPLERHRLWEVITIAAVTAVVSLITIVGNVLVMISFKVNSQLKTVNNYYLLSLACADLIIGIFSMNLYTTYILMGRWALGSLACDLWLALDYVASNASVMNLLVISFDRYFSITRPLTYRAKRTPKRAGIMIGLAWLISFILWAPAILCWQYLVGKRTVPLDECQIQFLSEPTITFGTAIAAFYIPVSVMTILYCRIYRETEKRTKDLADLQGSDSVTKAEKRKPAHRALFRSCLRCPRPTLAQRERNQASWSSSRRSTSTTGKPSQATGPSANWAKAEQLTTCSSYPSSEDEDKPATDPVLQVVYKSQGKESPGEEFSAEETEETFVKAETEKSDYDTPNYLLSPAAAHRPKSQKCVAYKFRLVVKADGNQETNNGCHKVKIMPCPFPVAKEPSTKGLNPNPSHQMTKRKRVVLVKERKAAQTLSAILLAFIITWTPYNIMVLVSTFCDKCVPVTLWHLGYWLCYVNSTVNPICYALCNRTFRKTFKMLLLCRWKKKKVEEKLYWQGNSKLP

[2] = DRUGMATRIX: beta-Lactamase enzyme inhibition (substrate: Nitrocefin); set-up: species or system Bacillus cereus; conditions: Not Active = under 50% inhibition at 10 µM
[3] = biological target: T2, Alpha-1A adrenergic receptor (Rattus norvegicus, UniProt P43140); experiment: DRUGMATRIX: Alpha-1A adrenergic receptor radioligand binding (ligand: prazosin); assay type: cell membranes, Wistar, Submaxillary gland, Membrane; conditions: Not Active = under 50% inhibition at 10 µM
T2 sequence (P43140 whole entry): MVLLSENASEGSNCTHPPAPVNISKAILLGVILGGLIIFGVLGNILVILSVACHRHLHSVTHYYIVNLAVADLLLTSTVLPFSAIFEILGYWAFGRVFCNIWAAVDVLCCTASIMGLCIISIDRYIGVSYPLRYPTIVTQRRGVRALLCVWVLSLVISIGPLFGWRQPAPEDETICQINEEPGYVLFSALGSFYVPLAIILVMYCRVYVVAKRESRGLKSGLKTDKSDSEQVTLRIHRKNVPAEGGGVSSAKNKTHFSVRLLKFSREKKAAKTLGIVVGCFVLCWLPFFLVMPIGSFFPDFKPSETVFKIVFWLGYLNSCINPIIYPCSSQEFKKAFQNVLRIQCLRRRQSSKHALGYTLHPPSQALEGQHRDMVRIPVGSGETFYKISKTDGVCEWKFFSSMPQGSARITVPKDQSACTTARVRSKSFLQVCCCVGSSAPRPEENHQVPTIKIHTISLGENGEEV

[4] = biological target: T3, Polyunsaturated fatty acid lipoxygenase ALOX15 (Oryctolagus cuniculus, UniProt P12530); experiment: biochemical; assay type: tissue-based, Reticulocytes;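 further: inhibition of 15-lipoxygenase enzyme activity measured with linoleic acid as the substrate; in other assays of this panel Not Active means under 50% inhibition at 10 µM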
T3 sequence (P12530 whole entry): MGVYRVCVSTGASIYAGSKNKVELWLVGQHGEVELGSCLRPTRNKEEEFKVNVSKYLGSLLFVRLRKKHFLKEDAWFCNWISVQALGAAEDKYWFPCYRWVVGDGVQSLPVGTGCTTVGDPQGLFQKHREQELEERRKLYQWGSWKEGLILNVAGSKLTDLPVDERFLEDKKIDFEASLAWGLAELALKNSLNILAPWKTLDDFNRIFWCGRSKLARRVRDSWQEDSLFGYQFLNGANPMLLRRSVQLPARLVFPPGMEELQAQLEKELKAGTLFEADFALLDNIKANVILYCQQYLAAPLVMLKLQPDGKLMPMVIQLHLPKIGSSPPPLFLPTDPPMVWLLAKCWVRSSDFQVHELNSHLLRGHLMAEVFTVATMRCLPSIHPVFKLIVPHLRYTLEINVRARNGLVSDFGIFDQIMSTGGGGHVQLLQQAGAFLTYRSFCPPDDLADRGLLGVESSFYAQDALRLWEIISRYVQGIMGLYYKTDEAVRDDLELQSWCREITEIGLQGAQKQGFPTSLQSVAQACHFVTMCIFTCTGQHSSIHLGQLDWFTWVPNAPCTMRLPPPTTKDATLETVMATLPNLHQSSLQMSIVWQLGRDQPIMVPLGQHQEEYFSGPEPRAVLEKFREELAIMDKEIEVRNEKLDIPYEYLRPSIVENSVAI

[5] = biological target: Mitogen-activated protein kinase 1 (Homo sapiens, UniProt P28482); experiment: DRUGMATRIX: Protein Serine/Threonine Kinase, ERK2 enzyme inhibition (substrate: Myelin Basic Protein); set-up: species or system Escherichia coli; conditions: Not Active = under 50% inhibition at 10 µM
Mitogen-activated protein kinase 1, sequence (P28482 whole entry): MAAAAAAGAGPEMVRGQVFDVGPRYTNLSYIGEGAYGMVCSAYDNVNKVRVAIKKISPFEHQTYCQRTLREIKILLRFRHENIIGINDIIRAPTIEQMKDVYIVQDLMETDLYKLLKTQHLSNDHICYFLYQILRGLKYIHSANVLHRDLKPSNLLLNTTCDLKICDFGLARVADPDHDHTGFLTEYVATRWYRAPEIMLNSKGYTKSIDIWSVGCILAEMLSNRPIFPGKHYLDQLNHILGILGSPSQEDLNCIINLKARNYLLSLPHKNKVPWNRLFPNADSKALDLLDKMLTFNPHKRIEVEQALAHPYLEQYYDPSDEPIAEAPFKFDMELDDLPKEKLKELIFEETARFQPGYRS

[6] = DRUGMATRIX: GABAA, Chloride Channel, TBOB radioligand binding (ligand: [3H] TBOB); assay type: cell membranes, Rattus norvegicus, Wistar, Cerebral cortex, Membrane; conditions: Not Active = under 50% inhibition at 10 µM

C[C@]12CC[C@@H](O)C[C@@H]1CC[C@@H]1[C@@H]2CC[C@]2(C)C(=O)CC[C@@H]12 [ANDROSTERONE]
Not Active: IC50 [1] | IC50 [2] | Ki [2] | IC50 [3] | IC50 ([4]; reticulocytes) | IC50 [5] | IC50 [6] | Ki [6]

COc1ccc(Cl)cc1C(=O)NCCc1ccc(S(=O)(=O)NC(=O)NC2CCCCC2)cc1 [GLYBURIDE]
Not Active: IC50 [1] | IC50 [2] | Ki [2] | IC50 [3] | IC50 ([4]; reticulocytes) | IC50 [5] | IC50 [6] | Ki [6]

C[N+](C)(C)CCOP(=O)([O-])OC[C@H](O)CO
Not Active: IC50 [1] | IC50 [2] | Ki [2] | IC50 [3] | IC50 ([4]; reticulocytes) | IC50 [5] | IC50 [6] | Ki [6]

NCC(CC(=O)O)c1ccc(Cl)cc1 (stereo unspecified) [BACLOFEN]
Not Active: IC50 [1] | IC50 [2] | Ki [2] | IC50 [3] | IC50 ([4]; reticulocytes) | IC50 [5] | IC50 [6] | Ki [6]

CC12CCC(CC1=O)C2(C)C (stereo unspecified) [CAMPHOR]
Not Active: IC50 [1] | IC50 [2] | Ki [2] | IC50 [3] | IC50 ([4]; reticulocytes) | IC50 [5] | IC50 [6] | Ki [6]

POVIDONE
Not Active: IC50 [1] | Ki [1] | IC50 [2] | Ki [2] | IC50 [3] | Ki [3] | IC50 ([4]; reticulocytes) | Ki ([4]; reticulocytes) | IC50 [5] | Ki [5] | IC50 [6] | Ki [6]

Cc1ccnc2c1NC(=O)c1cccnc1N2C1CC1 [NEVIRAPINE]
Not Active: IC50 [1] | IC50 [2] | Ki [2] | IC50 [3] | IC50 ([4]; reticulocytes) | IC50 [5] | IC50 [6] | Ki [6]

CCN1CCN(C(=O)N[C@@H](C(=O)N[C@@H]2C(=O)N3[C@@H]2SC(C)(C)[C@@H]3C(=O)O)c2ccccc2)C(=O)C1=O [PIPERACILLIN]
Not Active: IC50 [1] | IC50 [2] | Ki [2] | IC50 [3] | IC50 ([4]; reticulocytes) | IC50 [5] | IC50 [6] | Ki [6]

O=C(O)c1ccccc1 [BENZOIC ACID]
Not Active: IC50 [1] | IC50 [2] | Ki [2] | IC50 [3] | IC50 ([4]; reticulocytes) | IC50 [5] | IC50 [6] | Ki [6]

CC[C@H]1OC(=O)[C@H](C)[C@@H](O[C@H]2C[C@@](C)(OC)[C@@H](O)[C@H](C)O2)[C@H](C)[C@@H](O[C@@H]2O[C@H](C)C[C@H](N(C)C)[C@H]2O)[C@](C)(O)C[C@@H](C)C(=O)[C@H](C)[C@@H](O)[C@]1(C)O [ERYTHROMYCIN]
Not Active: IC50 [1] | IC50 [2] | Ki [2] | IC50 [3] | IC50 ([4]; reticulocytes) | IC50 [5] | IC50 [6] | Ki [6]

c1ccc2c(c1)Nc1ccccc1S2 [PHENOTHIAZINE]
Not Active: IC50 [1] | IC50 [2] | Ki [2] | IC50 [3] | IC50 [5] | IC50 [6] | Ki [6]
4.64 µM: IC50 ([4]; read-out: IC50)

CHROMIC CHLORIDE
Not Active: IC50 [1] | Ki [1] | IC50 [2] | Ki [2] | IC50 [3] | Ki [3] | IC50 ([4]; reticulocytes) | Ki ([4]; reticulocytes) | IC50 [5] | Ki [5] | IC50 [6] | Ki [6]

Cl.NC[C@H]1CC[C@H](C(=O)Oc2ccc(CCC(=O)O)cc2)CC1 [CETRAXATE HYDROCHLORIDE]
Not Active: IC50 [1] | IC50 [2] | Ki [2] | IC50 [3] | IC50 ([4]; reticulocytes) | IC50 [5] | IC50 [6] | Ki [6]

O=c1[nH]c2ccccc2c2ccccc12
Not Active: IC50 [1] | IC50 [2] | Ki [2] | IC50 [3] | IC50 ([4]; reticulocytes) | IC50 [5] | IC50 [6] | Ki [6]

C[C@H](C(=O)O)c1ccc2oc(-c3ccc(F)cc3)nc2c1 [FLUNOXAPROFEN]
Not Active: IC50 [1] | IC50 [2] | Ki [2] | IC50 [3] | IC50 ([4]; reticulocytes) | IC50 [5] | IC50 [6] | Ki [6]

O=C(O)CNCP(=O)(O)O [GLYPHOSATE]
Not Active: IC50 [1] | IC50 [2] | Ki [2] | IC50 [3] | IC50 ([4]; reticulocytes) | IC50 [5] | IC50 [6] | Ki [6]

C[N+](C)(C)CCOC(N)=O.[Cl-] [CARBACHOL]
Not Active: IC50 [1] | IC50 [2] | Ki [2] | IC50 [3] | IC50 ([4]; reticulocytes) | IC50 [5] | IC50 [6] | Ki [6]

O=C(O)CCc1nc(-c2ccccc2)c(-c2ccccc2)o1 [OXAPROZIN]
Not Active: IC50 [1] | IC50 [2] | Ki [2] | IC50 [3] | IC50 ([4]; reticulocytes) | IC50 [5] | IC50 [6] | Ki [6]

CC(=O)[C@]1(O)Cc2c(O)c3c(c(O)c2[C@@H](O[C@H]2C[C@H](N)[C@H](O)[C@H](C)O2)C1)C(=O)c1ccccc1C3=O [IDARUBICIN]
Not Active: IC50 [1] | IC50 [2] | Ki [2] | IC50 [3] | IC50 ([4]; reticulocytes) | IC50 [5] | IC50 [6] | Ki [6]

NS(=O)(=O)c1cc(C(=O)O)c(NCc2ccco2)cc1Cl [FUROSEMIDE]
Not Active: IC50 [1] | IC50 [2] | Ki [2] | IC50 [3] | IC50 ([4]; reticulocytes) | IC50 [5] | IC50 [6] | Ki [6]

O=C1CN(/N=C/c2ccc([N+](=O)[O-])o2)C(=O)N1 [NITROFURANTOIN]
Not Active: IC50 [1] | IC50 [2] | Ki [2] | IC50 [3] | IC50 ([4]; reticulocytes) | IC50 [5] | IC50 [6] | Ki [6]

CARBOXYMETHYLCELLULOSE
Not Active: IC50 [1] | Ki [1] | IC50 [2] | Ki [2] | IC50 [3] | Ki [3] | IC50 ([4]; reticulocytes) | Ki ([4]; reticulocytes) | IC50 [6] | Ki [6]
0.216 µM: IC50 ([5]; read-out: IC50)

c1ccc2sc(SSc3nc4ccccc4s3)nc2c1 [BENZOTHIAZYL DISULFIDE]
Not Active: IC50 [1] | IC50 [2] | Ki [2] | IC50 [3] | IC50 ([4]; reticulocytes) | IC50 [5] | IC50 [6] | Ki [6]

CC12CCC(CC1)C(C)(C)O2 [EUCALYPTOL]
Not Active: IC50 [1] | IC50 [2] | Ki [2] | IC50 [3] | IC50 ([4]; reticulocytes) | IC50 [5] | IC50 [6] | Ki [6]

CC(=O)Nc1ccc2c(c1)Cc1ccccc1-2 [2-ACETYLAMINOFLUORENE]
Not Active: IC50 [1] | IC50 [2] | Ki [2] | IC50 [3] | IC50 ([4]; reticulocytes) | IC50 [5] | IC50 [6] | Ki [6]
